According to patent publication US20240174662A1, “SMALL MOLECULE INHIBITORS OF SALT INDUCIBLE KINASES” (Janssen Biotech, Inc., priority 2021, published 2024):

Molecular target: SIK2 (Homo sapiens (Human), UniProt Q9H0K1)
Assay: SIK2 Enzymatic Assay Version 2 (High ATP)
Assay type: biochemical
Settings: 3 mM ATP and 200 μM HDAC5tide final, ADP-Glo Max luminescence
Outline: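 Luminescent ADP-Glo Max read-out: depletion reagent 2 h, then detection reagent 1 h. Before the reaction, compounds were incubated 30 min with enzyme added at 6 nM (twice final concentration), with all steps at room temperature.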

Sequence of SIK2 (Q9H0K1 whole entry, species assumed): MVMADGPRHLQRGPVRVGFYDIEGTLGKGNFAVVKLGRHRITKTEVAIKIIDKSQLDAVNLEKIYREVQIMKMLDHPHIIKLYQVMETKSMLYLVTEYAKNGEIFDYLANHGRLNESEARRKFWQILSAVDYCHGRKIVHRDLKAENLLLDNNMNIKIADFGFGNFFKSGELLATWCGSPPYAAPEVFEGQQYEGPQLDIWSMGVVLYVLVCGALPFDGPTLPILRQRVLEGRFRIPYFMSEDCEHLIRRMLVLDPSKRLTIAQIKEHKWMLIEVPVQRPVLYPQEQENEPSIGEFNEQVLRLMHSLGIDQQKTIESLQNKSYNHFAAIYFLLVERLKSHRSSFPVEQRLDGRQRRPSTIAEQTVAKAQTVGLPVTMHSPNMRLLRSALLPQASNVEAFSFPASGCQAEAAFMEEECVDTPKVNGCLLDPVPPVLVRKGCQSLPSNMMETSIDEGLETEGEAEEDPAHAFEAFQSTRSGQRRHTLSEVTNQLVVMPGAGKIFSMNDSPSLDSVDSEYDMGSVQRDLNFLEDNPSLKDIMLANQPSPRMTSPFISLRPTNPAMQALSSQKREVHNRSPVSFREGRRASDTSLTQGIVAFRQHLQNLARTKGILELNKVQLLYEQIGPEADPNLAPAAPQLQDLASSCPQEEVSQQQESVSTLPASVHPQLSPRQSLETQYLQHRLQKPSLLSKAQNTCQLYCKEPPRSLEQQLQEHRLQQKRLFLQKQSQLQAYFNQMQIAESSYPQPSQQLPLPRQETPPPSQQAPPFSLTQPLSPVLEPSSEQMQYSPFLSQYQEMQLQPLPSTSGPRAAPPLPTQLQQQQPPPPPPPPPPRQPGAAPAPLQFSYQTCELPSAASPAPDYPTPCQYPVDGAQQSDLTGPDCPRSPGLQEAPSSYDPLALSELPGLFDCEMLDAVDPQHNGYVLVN

SMILES | IC50 [nM]
CN1CC[C@H](Oc2cnn(C)c2-c2ccn3nc(NC(=O)C4CC4)cc3c2)C1 [Example 105, N-[5-[2-methyl-4-[(3S)-1-methylpyrrolidin-3-yl]oxy-pyrazol-3-yl]pyrazolo[1,5-a]pyridin-2-yl]cyclopropanecarboxamide] | 43.1
CN1CC[C@@H]1COc1cnn(C)c1-c1ccn2nc(Nc3ccc(C(=O)NCC(C)(C)O)cn3)cc2c1 [Example 106, N-(2-hydroxy-2-methyl-propyl)-6-[[5-[2-methyl-4-[[(2R)-1-methylazetidin-2-yl]methoxy]pyrazol-3-yl]pyrazolo[1,5-a]pyridin-2-yl]amino]pyridine-3-carboxamide] | 2.4
COCCNC(=O)c1ccc(Nc2cc3cc(-c4c(OC[C@H]5CCN5C)cnn4C)ccn3n2)nc1 [Example 107, N-(2-methoxyethyl)-6-[[5-[2-methyl-4-[[(2R)-1-methylazetidin-2-yl]methoxy]pyrazol-3-yl]pyrazolo[1,5-a]pyridin-2-yl]amino]pyridine-3-carboxamide] | 3.3
Cc1nc(Nc2cc3cc(-c4c(OC[C@H]5CCN5C)cnn4C)ccn3n2)cc(C(=O)N(C)C)n1 [Example 108, N,N,2-trimethyl-6-[[5-[2-methyl-4-[[(2R)-1-methylazetidin-2-yl]methoxy]pyrazol-3-yl]pyrazolo[1,5-a]pyridin-2-yl]amino]pyrimidine-4-carboxamide] | 3.3
Cc1cc(Nc2cc3cc(-c4c(OC[C@H]5CCN5C)cnn4C)ccn3n2)nc(C(=O)NCC(C)(C)O)c1 [Example 113, N-(2-hydroxy-2-methyl-propyl)-4-methyl-6-[[5-[2-methyl-4-[[(2R)-1-methylazetidin-2-yl]methoxy]pyrazol-3-yl]pyrazolo[1,5-a]pyridin-2-yl]amino]pyridine-2-carboxamide] | 22.3
CN1CC[C@@H]1COc1cnn(C)c1-c1ccn2nc(Nc3ccc4c(n3)CCOC4)cc2c1 [Example 114, N-[5-[2-methyl-4-[[(2R)-1-methylazetidin-2-yl]methoxy]pyrazol-3-yl]pyrazolo[1,5-a]pyridin-2-yl]-7,8-dihydro-5H-pyrano[4,3-b]pyridin-2-amine] | 1.1
CN1CC[C@@H]1COc1cnn(C)c1-c1ccn2nc(Nc3cnc(C(F)(F)F)cn3)cc2c1 [Example 117, 5-[2-methyl-4-[[(2R)-1-methylazetidin-2-yl]methoxy]pyrazol-3-yl]-N-[5-(trifluoromethyl)pyrazin-2-yl]pyrazolo[1,5-a]pyridin-2-amine] | 8.8
COc1nccc(Nc2cc3cc(-c4c(OC[C@H]5CCN5C)cnn4C)ccn3n2)n1 [Example 119, N-(2-methoxypyrimidin-4-yl)-5-[2-methyl-4-[[(2R)-1-methylazetidin-2-yl]methoxy]pyrazol-3-yl]pyrazolo[1,5-a]pyridin-2-amine] | 1.6
COc1nnc(Nc2cc3cc(-c4c(OC[C@H]5CCN5C)cnn4C)ccn3n2)cc1C [Example 121, N-(6-methoxy-5-methyl-pyridazin-3-yl)-5-[2-methyl-4-[[(2R)-1-methylazetidin-2-yl]methoxy]pyrazol-3-yl]pyrazolo[1,5-a]pyridin-2-amine] | 1

The remaining lines, values ahead:

IC50 [nM] | SMILES
< 0.847 | CCN1CC[C@@H]1COc1cnn(C)c1-c1ccn2nc(Nc3cc(C)nc(C(F)F)n3)cc2c1 [Example 103, N-[2-(difluoromethyl)-6-methyl-pyrimidin-4-yl]-5-[4-[[(2R)-1-ethylazetidin-2-yl]methoxy]-2-methyl-pyrazol-3-yl]pyrazolo[1,5-a]pyridin-2-amine]
16.9 | CCN1CC[C@@H]1COc1cnn(C(F)F)c1-c1ccn2nc(Nc3cnn(C)c3)cc2c1 [Example 104, 5-[2-(difluoromethyl)-4-[[(2R)-1-ethylazetidin-2-yl]methoxy]pyrazol-3-yl]-N-(1-methylpyrazol-4-yl)pyrazolo[1,5-a]pyridin-2-amine]
6.2 | CNC(=O)c1nc(C)cc(Nc2cc3cc(-c4c(OC[C@H]5CCN5C)cnn4C)ccn3n2)n1 [Example 109, N,4-dimethyl-6-[[5-[2-methyl-4-[[(2R)-1-methylazetidin-2-yl]methoxy]pyrazol-3-yl]pyrazolo[1,5-a]pyridin-2-yl]amino]pyrimidine-2-carboxamide]
2.8 | Cc1cc(Nc2cc3cc(-c4c(OC[C@H]5CCN5C)cnn4C)ccn3n2)nc(C(=O)N(C)C)n1 [Example 110, N,N,4-trimethyl-6-[[5-[2-methyl-4-[[(2R)-1-methylazetidin-2-yl]methoxy]pyrazol-3-yl]pyrazolo[1,5-a]pyridin-2-yl]amino]pyrimidine-2-carboxamide]
1.3 | Cc1cc(C(=O)NCC(C)(C)O)cc(Nc2cc3cc(-c4c(OC[C@H]5CCN5C)cnn4C)ccn3n2)n1 [Example 111, N-(2-hydroxy-2-methyl-propyl)-2-methyl-6-[[5-[2-methyl-4-[[(2R)-1-methylazetidin-2-yl]methoxy]pyrazol-3-yl]pyrazolo[1,5-a]pyridin-2-yl]amino]pyridine-4-carboxamide]
2.7 | Cc1cc(C(=O)NC(C)C)cc(Nc2cc3cc(-c4c(OC[C@H]5CCN5C)cnn4C)ccn3n2)n1 [Example 112, N-isopropyl-2-methyl-6-[[5-[2-methyl-4-[[(2R)-1-methylazetidin-2-yl]methoxy]pyrazol-3-yl]pyrazolo[1,5-a]pyridin-2-yl]amino]pyridine-4-carboxamide]
9 | COCCNC(=O)c1cnc(Nc2cc3cc(-c4c(OC[C@H]5CCN5C)cnn4C)ccn3n2)cn1 [Example 115, N-(2-methoxyethyl)-5-[[5-[2-methyl-4-[[(2R)-1-methylazetidin-2-yl]methoxy]pyrazol-3-yl]pyrazolo[1,5-a]pyridin-2-yl]amino]pyrazine-2-carboxamide]
< 0.847 | Cc1cc(Nc2cc3cc(-c4c(OC[C@H]5CCN5C)cnn4C)ccn3n2)nc(-c2cccnc2)n1 [Example 116, 5-[2-methyl-4-[[(2R)-1-methylazetidin-2-yl]methoxy]pyrazol-3-yl]-N-[6-methyl-2-(3-pyridyl)pyrimidin-4-yl]pyrazolo[1,5-a]pyridin-2-amine]
1.9 | CN1CC[C@@H]1COc1cnn(C)c1-c1ccn2nc(Nc3ccnc(C(F)(F)F)n3)cc2c1 [Example 118, 5-[2-methyl-4-[[(2R)-1-methylazetidin-2-yl]methoxy]pyrazol-3-yl]-N-[2-(trifluoromethyl)pyrimidin-4-yl]pyrazolo[1,5-a]pyridin-2-amine]
23.7 | CNC(=O)c1cc(Nc2cc3cc(-c4c(OC[C@H]5CCN5C)cnn4C)ccn3n2)nc(C)n1 [Example 120, N,2-dimethyl-6-[[5-[2-methyl-4-[[(2R)-1-methylazetidin-2-yl]methoxy]pyrazol-3-yl]pyrazolo[1,5-a]pyridin-2-yl]amino]pyrimidine-4-carboxamide]
3.6 | Cc1nc(Nc2cc3cc(-c4c(OC[C@H]5CCN5C)cnn4C)ccn3n2)cc(C(F)(F)F)n1 [Example 122, 5-[2-methyl-4-[[(2R)-1-methylazetidin-2-yl]methoxy]pyrazol-3-yl]-N-[2-methyl-6-(trifluoromethyl)pyrimidin-4-yl]pyrazolo[1,5-a]pyridin-2-amine]
8.4 | CN1CC[C@@H]1COc1cnn(C)c1-c1ccn2nc(Nc3cc(C(F)(F)F)ncn3)cc2c1 [Example 123, 5-[2-methyl-4-[[(2R)-1-methylazetidin-2-yl]methoxy]pyrazol-3-yl]-N-[6-(trifluoromethyl)pyrimidin-4-yl]pyrazolo[1,5-a]pyridin-2-amine]
